Assay results from patent publication US20250011304A1, “CRYSTALLINE FORM OF N-(2-CHLORO-3-((5-CHLORO-3-METHYL-4-OXO-3,4-DIHYDROQUINAZOLIN-6-YL)AMINO)-4-FLUOROPHENYL)-3-FLUOROAZETIDINE-1-SULFONAMIDE” (Array BioPharma Inc., priority 2021, published 2025).
Entries after “also recorded” stand apart in the source; their conditions may differ.

How the values were obtained:
BCRP [1] = target: T1, BCRP (Mus musculus, UniProt Q7TMS5); settings: reported by Mittapalli et al.; cited from earlier work
T1 sequence (Q7TMS5 1-657): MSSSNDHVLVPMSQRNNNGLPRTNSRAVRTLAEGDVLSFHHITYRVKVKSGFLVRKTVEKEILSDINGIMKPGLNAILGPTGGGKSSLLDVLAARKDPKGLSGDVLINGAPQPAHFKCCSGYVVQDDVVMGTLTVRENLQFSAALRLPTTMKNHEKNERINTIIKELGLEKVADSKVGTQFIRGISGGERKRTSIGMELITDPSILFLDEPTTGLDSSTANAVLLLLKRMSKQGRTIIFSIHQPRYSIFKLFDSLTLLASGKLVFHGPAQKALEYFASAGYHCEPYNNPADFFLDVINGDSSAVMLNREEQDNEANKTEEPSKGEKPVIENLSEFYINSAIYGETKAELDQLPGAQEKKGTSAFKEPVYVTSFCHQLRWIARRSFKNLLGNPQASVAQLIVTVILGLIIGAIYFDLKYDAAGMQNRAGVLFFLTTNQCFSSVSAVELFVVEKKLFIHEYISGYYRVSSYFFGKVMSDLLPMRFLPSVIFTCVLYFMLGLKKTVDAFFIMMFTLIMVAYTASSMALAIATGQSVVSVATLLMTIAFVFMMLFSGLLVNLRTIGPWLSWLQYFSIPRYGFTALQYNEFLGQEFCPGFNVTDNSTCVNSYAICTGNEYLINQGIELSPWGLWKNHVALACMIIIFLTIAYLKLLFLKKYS

[2] = Hygroscopicity (DVS water sorption and desorption); format: physicochemical; settings: for Hygroscopicity: DVS 0-90% RH; for Mass Gain at 25° C. and 60% RH / Mass Gain at 25° C. and 90% RH: DVS; for PXRD Post-DVS: solid form of powder remaining after DVS analysis
Experimental: Water sorption and desorption were analyzed with a DVS-Resolution. The microbalance was calibrated with a 100 mg standard weight on a monthly basis. About 8 mg of the compound was added to a sample pan and placed inside chamber A of the DVS-Resolution. Percent relative humidity was held at 0% for 1 hour, and increased to 90% in 10% increments, then ramped back to 0% in 10% increments. […] The powder material remaining following the DVS analysis was analyzed by PXRD to determine if a change in the diffraction pattern is observed.

[3] = Physical stability analysis by PXRD; format: physicochemical; settings: for physical stability under accelerated stability conditions: 70° C./75% relative humidity (RH) for 8 days
Experimental: Powder X-ray Diffraction (PXRD) method for characteristic peak determination Powder X-ray diffraction analysis was conducted using a Bruker AXS D8 Endeavor diffractometer equipped with a Copper (Cu) radiation source. The divergence slit was set at 15 mm continuous illumination. Diffracted radiation was detected by a PSD-Lynx Eye detector, with the detector PSD opening set at 2.99 degrees. The X-ray tube voltage and amperage were set to 40 kV and 40 mA respectively. Data was collected in the Theta-Theta goniometer at the Cu wavelength (CuKα=[…]) from 3.0 to 40.0 degrees 2-Theta using a step size of 0.01 degrees and a step time of 1.0 second. The antiscatter screen was set to a fixed distance of 3.0 mm. Samples were rotated at 15/min during collection. Samples were prepared by placing them in a silicon low background sample holder and rotated during collection. Data were collected using Bruker DIFFRAC Plus software and analysis was performed by EVA diffract plus software. The PXRD data file was not processed prior to peak searching. Using the peak search algorithm in the EVA software, peaks selected with a threshold value of 1 were used to make preliminary peak assignments. To ensure validity, adjustments were manually made; the output of automated assignments was visually checked, and peak positions were adjusted to the peak maximum. Peaks with relative intensity of >3% were generally chosen. Typically, the peaks which were not resolved or were consistent with noise were not selected. A typical error associated with the peak position from PXRD stated in USP up to +/−0.2° 2-Theta (USP-941).
Table 5 details the differences between Form 1 and amorphous form.

MDR1 (P-gp) = target: T2, MDR1 (P-gp) (Homo sapiens, UniProt P08183); test: MDR1 LLC-PK1 permeability assay (efflux); format: in vitro ADME; settings: statement in background
T2 construct: expressed in transfected cells; host or cells: LLC-PK1
Source text: (§1) Final organic concentration in the assay was 1%.
(§2) The efflux ratios for N-(2-chloro-3-((5-chloro-3-methyl-4-oxo-3,4-dihydroquinazolin-6-yl)amino)-4-fluorophenyl)-3-fluoroazetidine-1-sulfonamide (Compound 1) when tested in this assay were 2.1 (MDR1) and 4.2 (BCRP).

[4] = PK (free brain-to-free plasma ratio) (mouse); format: in vivo; settings: male CD-1 mice, oral gavage 10 mg/kg, (B/P)*(Bfu/Pfu)
Experimental: The ability of N-(2-chloro-3-((5-chloro-3-methyl-4-oxo-3,4-dihydroquinazolin-6-yl)amino)-4-fluorophenyl)-3-fluoroazetidine-1-sulfonamide (Compound 1) to penetrate the BBB in mice was determined by evaluating the unbound brain-to-unbound plasma (also referred to as free brain-to-free plasma) concentration ratio in male CD-1 mice.
Brain compound levels were generated from oral mouse PK dosing with typical sampling times of 2, 4, 8, 12 and 24 hours post oral gavage dosing at 10 mg/kg. Brain samples were stored at −20±5° C. prior to analysis. Concentrations of Compound 1 in mouse brain homogenate were determined by liquid chromatography tandem mass spectrometry (LC-MS/MS) following protein precipitation with acetonitrile. A 12-point calibration curve, ranging from 0.5 to 10,000 ng/mL, was prepared in duplicate. […]
Brain-to-plasma ratios were calculated using the concentration of Compound 1 measured in the brain divided by the concentration of compound measured in the plasma. […] Free brain-to-free plasma ratios were calculated by multiplying the brain-to-plasma ratio by the in vitro brain homogenate free fraction divided by the in vitro plasma free fraction using the following equation: (B/P)*(Bfu/Pfu). […]

[5] = target: T3, full-length FLAG-tagged B-Raf(V600E) (Homo sapiens, UniProt P15056, V600E); test: BRAF V600E enzyme assay (TR-FRET competitive tracer displacement); format: binding; settings: 60 min, ambient temperature
T3 construct: 5 nM full-length, N-terminally FLAG-tagged B-Raf(V600E) (Origene Technologies, TP700031); purchased Origene Technologies TP700031
Experimental: A competitive displacement assay was configured for B-Raf that monitors the amount of a fluorescently-tagged “tracer” bound to B-Raf via TR-FRET from an anti-tag Eu-labeled antibody also bound to B-Raf. For full-length FLAG-tagged B-Raf(V600E), the assay mixtures consisted of 25 mM K^+HEPES, pH 7.4, 10 mM MgCl2, 0.01% Triton X-100, 1 mM DTT, 2% DMSO (from compound), 50 nM Tracer 1710 (ThermoFisher, PR9176A), 0.5 nM Eu anti-FLAG (M2)-cryptate Ab (Cisbio, 61FG2KLB) and 5 nM full-length, N-terminally FLAG-tagged B-Raf(V600E) (Origene Technologies, TP700031. N-(2-chloro-3-((5-chloro-3-methyl-4-oxo-3,4-dihydroquinazolin-6-yl)amino)-4-fluorophenyl)-3-fluoroazetidine-1-sulfonamide was diluted in DMSO across an 11-point dosing range created using a 3-fold serial dilution protocol at a top dose of 10 μM. The assay was run in 384-well, polystyrene, low-volume, non-treated, white microtiter plates (Costar 4512) in a final volume of 12 μL. Low control wells included 1 μM of a potent B-Raf inhibitor as a control. The assays were incubated at ambient temperature (typically 22° C.) for 60 min and then read on a PerkinElmer EnVision microplate reader using standard TRF settings (λEx=320 nm, λEm=615 & 665 nm). The ratioed counts (665 nm/615 nm) were converted to percent of control (POC) using the following equation:
[formula] • where: • xmax Average Uninhibited Controls • Xmin Average Background […]

BCRP [6] = target: T4, BCRP (Homo sapiens, UniProt Q9UNQ0); test: BCRP MDCKII permeability assay (efflux); format: in vitro ADME; settings: statement in background
T4 construct: expressed in transfected cells; host or cells: MDCKII
T4 sequence (Q9UNQ0 1-655): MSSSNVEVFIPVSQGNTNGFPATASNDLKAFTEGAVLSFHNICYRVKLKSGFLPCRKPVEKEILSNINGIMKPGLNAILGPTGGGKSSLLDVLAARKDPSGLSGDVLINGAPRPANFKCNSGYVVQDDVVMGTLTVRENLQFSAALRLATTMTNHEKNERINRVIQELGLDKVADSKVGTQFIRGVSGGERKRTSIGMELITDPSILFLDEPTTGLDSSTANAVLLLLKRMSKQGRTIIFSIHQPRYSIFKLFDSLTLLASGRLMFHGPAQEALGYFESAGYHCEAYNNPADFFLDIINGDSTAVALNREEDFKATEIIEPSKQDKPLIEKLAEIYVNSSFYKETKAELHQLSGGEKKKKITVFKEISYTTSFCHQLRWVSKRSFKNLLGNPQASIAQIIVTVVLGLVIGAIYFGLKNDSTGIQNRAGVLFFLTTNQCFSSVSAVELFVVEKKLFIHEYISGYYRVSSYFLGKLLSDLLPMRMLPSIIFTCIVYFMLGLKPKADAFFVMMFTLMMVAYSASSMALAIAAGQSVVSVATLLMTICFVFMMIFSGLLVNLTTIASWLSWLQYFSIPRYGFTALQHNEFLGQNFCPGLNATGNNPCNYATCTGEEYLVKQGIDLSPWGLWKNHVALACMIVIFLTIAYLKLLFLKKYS
Source text: as §1, §2

T3 sequence (P15056 whole entry V600E): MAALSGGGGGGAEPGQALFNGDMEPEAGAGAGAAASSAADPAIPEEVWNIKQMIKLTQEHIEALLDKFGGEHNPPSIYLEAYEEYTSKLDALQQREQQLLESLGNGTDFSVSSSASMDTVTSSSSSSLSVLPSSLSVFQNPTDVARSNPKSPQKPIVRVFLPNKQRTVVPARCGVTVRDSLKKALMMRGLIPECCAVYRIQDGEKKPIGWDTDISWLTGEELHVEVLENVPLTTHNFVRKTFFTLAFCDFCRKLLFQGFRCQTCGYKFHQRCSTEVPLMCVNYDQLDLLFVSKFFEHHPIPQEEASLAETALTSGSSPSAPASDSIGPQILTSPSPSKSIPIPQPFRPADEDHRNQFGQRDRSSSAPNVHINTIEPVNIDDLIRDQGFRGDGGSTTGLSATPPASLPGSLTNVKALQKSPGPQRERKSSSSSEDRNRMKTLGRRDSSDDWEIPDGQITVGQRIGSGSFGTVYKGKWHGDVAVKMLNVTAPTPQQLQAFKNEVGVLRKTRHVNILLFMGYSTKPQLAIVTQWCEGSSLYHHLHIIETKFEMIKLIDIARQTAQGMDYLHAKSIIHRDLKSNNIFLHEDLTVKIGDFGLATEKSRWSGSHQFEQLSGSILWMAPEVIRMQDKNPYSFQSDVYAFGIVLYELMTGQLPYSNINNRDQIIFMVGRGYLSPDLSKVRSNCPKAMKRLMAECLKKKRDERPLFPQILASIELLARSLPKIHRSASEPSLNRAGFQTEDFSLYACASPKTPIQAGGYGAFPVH
T2 sequence (P08183 whole entry, species assumed): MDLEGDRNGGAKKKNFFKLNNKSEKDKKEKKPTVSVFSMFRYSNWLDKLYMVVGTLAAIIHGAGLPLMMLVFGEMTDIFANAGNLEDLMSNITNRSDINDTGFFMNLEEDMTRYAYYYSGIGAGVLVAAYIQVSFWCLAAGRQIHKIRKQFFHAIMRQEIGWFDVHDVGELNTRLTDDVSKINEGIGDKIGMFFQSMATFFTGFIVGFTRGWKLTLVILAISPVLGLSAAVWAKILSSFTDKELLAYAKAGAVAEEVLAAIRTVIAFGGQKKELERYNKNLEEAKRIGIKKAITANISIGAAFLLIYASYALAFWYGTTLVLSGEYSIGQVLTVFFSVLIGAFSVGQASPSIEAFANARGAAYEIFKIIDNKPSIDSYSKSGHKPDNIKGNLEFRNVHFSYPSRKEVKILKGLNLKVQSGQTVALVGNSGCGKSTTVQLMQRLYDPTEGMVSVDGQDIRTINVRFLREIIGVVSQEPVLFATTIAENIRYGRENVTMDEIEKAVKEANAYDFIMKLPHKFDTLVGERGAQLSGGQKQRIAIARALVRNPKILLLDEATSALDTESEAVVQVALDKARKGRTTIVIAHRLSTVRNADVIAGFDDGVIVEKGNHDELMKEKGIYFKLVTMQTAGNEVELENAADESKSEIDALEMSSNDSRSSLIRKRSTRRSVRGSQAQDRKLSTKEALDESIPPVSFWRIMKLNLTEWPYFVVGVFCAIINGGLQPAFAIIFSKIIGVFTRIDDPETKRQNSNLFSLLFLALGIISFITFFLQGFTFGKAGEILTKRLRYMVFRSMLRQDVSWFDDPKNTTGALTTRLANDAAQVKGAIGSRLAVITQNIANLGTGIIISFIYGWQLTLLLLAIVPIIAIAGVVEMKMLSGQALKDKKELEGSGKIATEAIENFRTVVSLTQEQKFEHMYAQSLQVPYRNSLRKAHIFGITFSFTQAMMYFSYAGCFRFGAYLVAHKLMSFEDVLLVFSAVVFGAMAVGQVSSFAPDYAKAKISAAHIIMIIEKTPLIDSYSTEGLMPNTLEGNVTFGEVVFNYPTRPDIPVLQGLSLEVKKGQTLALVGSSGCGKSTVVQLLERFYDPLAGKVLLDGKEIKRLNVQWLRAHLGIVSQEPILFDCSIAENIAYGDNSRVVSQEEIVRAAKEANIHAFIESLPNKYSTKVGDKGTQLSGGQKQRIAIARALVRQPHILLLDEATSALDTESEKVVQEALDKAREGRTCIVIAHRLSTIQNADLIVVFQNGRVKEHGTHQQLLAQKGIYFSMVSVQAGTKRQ

Row | SMILES | BCRP efflux ratio (BCRP [1]) | Hygroscopicity [2] | Mass Gain at 25° C. and 90% RH [2] | physical stability under accelerated stability conditions [3] | Solid form identified by PXRD after 8 days ([3]; stored at 5° C.) | Solid form identified by PXRD after 8 days ([3]; stored at 70° C./75% RH) | also measured
1 | CC(C)(C)c1nc(-c2cccc(NS(=O)(=O)c3c(F)cccc3F)c2F)c(-c2ccnc(N)n2)s1 [dabrafenib] | 21.0 |  |  |  |  |  | 
2 | Cn1cnc2ccc(Nc3c(F)ccc(NS(=O)(=O)N4CC(F)C4)c3Cl)c(Cl)c2c1=O [amorphous Compound 1, Form 2, amorphous N-(2-chloro-3-((5-chloro-3-methyl-4-oxo-3,4-dihydroquinazolin-6-yl)amino)-4-fluorophenyl)-3-fluoroazetidine-1-sulfonamide, Form 2] |  | hygroscopic | approximately 3.6% | crystallized to crystalline anhydrous Compound 1, Form 1 | amorphous compound 1, | crystalline anhydrous | Hygroscopicity ([2]; Form 2): Hygroscopic; Mass Gain at 25° C. and 60% RH ([2]; Form 2): 1.7%; Mass Gain at 25° C. and 90% RH ([2]; Form 2): 3.6%; PXRD Post-DVS ([2]; Form 2): amorphous Compound
3 | Cn1cnc2ccc(Nc3c(F)ccc(NS(=O)(=O)N4CC(F)C4)c3Cl)c(Cl)c2c1=O [Compound 1, N-(2-chloro-3-((5-chloro-3-methyl-4-oxo-3,4-dihydroquinazolin-6-yl)amino)-4-fluorophenyl)-3-fluoroazetidine-1-sulfonamide] |  |  |  |  |  |  | substrate of active transporter P-glycoproteins (P-gp) (MDR1 (P-gp)): not a substrate; Kp,uu (unbound brain-to-unbound plasma ratio) [4]: 0.12 to 0.17; IC50 [5]: 3 nM; substrate of active transporter breast cancer resistance protein (BCRP) (BCRP [6]): not a substrate
4 | Cn1cnc2ccc(Nc3c(F)ccc(NS(=O)(=O)N4CC(F)C4)c3Cl)c(Cl)c2c1=O [crystalline anhydrous Compound 1, Form 1, crystalline anhydrous N-(2-chloro-3-((5-chloro-3-methyl-4-oxo-3,4-dihydroquinazolin-6-yl)amino)-4-fluorophenyl)-3-fluoroazetidine-1-sulfonamide, Form 1] |  | not hygroscopic; also recorded: Non-Hygroscopic | 0.0% | stable | crystalline anhydrous | crystalline anhydrous | Mass Gain at 25° C. and 60% RH [2]: 0.0%; PXRD Post-DVS [2]: crystalline anhydrous
5 | CCCS(=O)(=O)Nc1ccc(F)c(C(=O)c2c[nH]c3ncc(-c4ccc(Cl)cc4)cc23)c1F [vemurafenib] | 495 |  |  |  |  |  | 
